Measured values taken from patent US20100048950A1 (BOEHRINGER INGELHEIM INTERNATIONAL GMBH, priority 2007, published 2010).

Columns and labels:
[1] = target: T1, human glucocorticoid receptor (GR) complex (Homo sapiens, UniProt P04150); assay: Glucocorticoid receptor competitive binding assay (fluorescence polarization); settings: competition with TAMRA-labeled dexamethasone, read-out: potent activity (IC50) in the GR binding assay
T1 construct: made in house; host or cells: insect expression system (baculovirus lysate)
T1 sequence (P04150 1-777): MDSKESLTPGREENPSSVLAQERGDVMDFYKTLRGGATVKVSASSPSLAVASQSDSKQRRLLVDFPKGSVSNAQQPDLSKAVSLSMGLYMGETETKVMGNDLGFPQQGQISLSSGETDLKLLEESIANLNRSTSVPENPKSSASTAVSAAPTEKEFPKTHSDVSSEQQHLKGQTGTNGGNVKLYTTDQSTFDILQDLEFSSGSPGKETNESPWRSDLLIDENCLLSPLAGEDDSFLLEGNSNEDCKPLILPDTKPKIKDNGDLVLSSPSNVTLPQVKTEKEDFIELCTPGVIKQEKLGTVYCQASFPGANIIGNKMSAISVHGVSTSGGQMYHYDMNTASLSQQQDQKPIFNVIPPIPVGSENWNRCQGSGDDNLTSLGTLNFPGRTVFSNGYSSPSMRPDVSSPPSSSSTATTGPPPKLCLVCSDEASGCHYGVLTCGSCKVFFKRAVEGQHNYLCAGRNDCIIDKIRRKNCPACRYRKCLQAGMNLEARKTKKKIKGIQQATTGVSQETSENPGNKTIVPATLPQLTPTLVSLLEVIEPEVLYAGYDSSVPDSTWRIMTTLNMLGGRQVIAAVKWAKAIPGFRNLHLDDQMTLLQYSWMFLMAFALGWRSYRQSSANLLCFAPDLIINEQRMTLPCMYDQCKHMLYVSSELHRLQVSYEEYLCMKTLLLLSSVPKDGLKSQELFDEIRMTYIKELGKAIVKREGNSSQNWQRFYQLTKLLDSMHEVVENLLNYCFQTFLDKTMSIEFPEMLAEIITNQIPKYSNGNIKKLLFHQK
How it was run: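 Human GR complex in baculovirus insect-cell lysate (1:170) competed against 15 nM TAMRA-dexamethasone stock for 1 h at room temperature. Buffer: TES/KCl/molybdate/EDTA/CHAPS/glycerol/DTT, pH 7.4, 1% DMSO final. FP read at 550/580 nm; IC50 from 4-parameter logistic fit.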

glucocorticoid receptor = assay: Agonist activity in one or more of the above assays (GR cell assays); assay type: cell-based; settings: in one or more of the above assays (assay not specified)
Procedure: Dexamethasone, a synthetic ligand to the glucocorticoid receptor (GR), induces expression of aromatase in human foreskin fibroblast cells. The activity of aromatase is measured by the conversion of testosterone to estradiol in culture media.
Human foreskin fibroblast cells (ATCC Cat. No. CRL-2429, designation CCD112SK) are plated on 96 well plates at 50,000 cells per well 5 days before use, in Iscove's Modified Dulbecco's Media (GibcoBRL Life Technologies Cat No. 12440-053) supplemented with 10% charcoal filtered FBS (Clonetech Cat No. SH30068) and Gentamycin (GibcoBRL Life Technologies Cat. No. 15710-064). On the day of the experiment, the media in the wells is replaced with fresh media. Cells are treated with test compounds to final concentrations of 10^−5 M to […], and testosterone to a final concentration of 300 ng/mL. Each well has a total volume of 100 μL. Samples are made in duplicates. Control wells include: (a) wells that receive testosterone only, and (b) wells that receive testosterone plus 2 μM of dexamethasone to provide maximum induction of aromatase. Plates are incubated at 37° C. overnight (15 to 18 hours), and supernatants are harvested at the end of incubation. Estradiol in the supernatant is measured using ELISA kits for estradiol (made by ALPCO, obtained from American Laboratory Products Cat. No. 020-DR-2693) according to the manufacture's instruction. The amount of estradiol is inversely proportional to the ELISA signals in each well. The extent of aromatase induction by test compounds is expressed as a relative percentage to dexamethasone. EC50 values of test compounds are derived by non-linear curve fitting.
Human foreskin fibroblast cells produce IL-6 in response to stimulation by pro-inflammatory cytokine IL-1.
Human foreskin fibroblast cells (ATCC Cat. No. CRL-2429) are plated on 96 well plates at 5,000 cells per well the day before use, in Iscove's Modified Dulbecco's Media (GibcoBRL Life Technologies Cat. No. 12440-053) supplemented with 10% charcoal filtered FBS (Clonetech Cat. No. SH30068) and Gentamycin (GibcoBRL Life Technologies Cat. No. 15710-064). On the next day, media in the wells is replaced with fresh media. Cells are treated with IL-1 (rhIL-1α, R&D Systems Cat. No. 200-LA) to a final concentration of 1 ng/mL, and with test compounds to final concentrations of 10^−5 M to 10^−8 M, in a total volume of 200 μL per well. Samples are done in duplicates. […] Positive control wells receive IL-1 only and represent maximum (or 100%) amount of IL-6 production. Plates are incubated at 37° C. overnight (15 to 18 hours), and supernatants are harvested at the end of incubation. IL-6 levels in the supernatants are determined by the ELISA kits for IL-6 (MedSystems Diagnostics GmbH, Vienna, Austria, Cat. No. BMS213TEN) according to manufacture's instructions. The extent of inhibition of IL-6 by test compounds is expressed in percentage relative to positive controls. IC50 values of test compounds are derived by non-linear curve fitting.
Evaluation of agonist or antagonist activity of compounds binding to the glucocorticoid receptor may be determined by any of the assays.
Testing of compounds for agonist or antagonist activity in induction of tyrosine aminotransferase (TAT) in rat hepatoma cells.
H4-II-E-C3 cells were incubated overnight in 96 well plates (20,000 cells/100 μL/well) in MEM medium containing 10% heat inactivated FBS and 1% nonessential amino acids. On the next day, cells were stimulated with the indicated concentrations of dexamethasone or test compound (dissolved in DMSO, final DMSO concentration 0.2%) for 18 hours. Control cells were treated with 0.2% DMSO. After 18 hours, the cells were lysed in a buffer containing 0.1% Triton X-100 and the TAT activity was measured in a photometric assay using tyrosine and alpha-ketoglutarate as substrates. […]

IC50 [1] | melting point | SMILES | activity as an agonist of the glucocorticoid receptor function (glucocorticoid receptor)
≤ 100 nM |  | Cc1cc(C)c(S(=O)(=O)NC(CNc2cccc3c(C#N)cccc23)C(F)(F)F)c(C)c1 (stereo not shown) [N-{1-[(5-Cyanonephthalen-1-ylamino)methyl]-2,2,2-trifluoroethyl}-2,4,6-trimethyl-benzenesulfonamide] | activity as an agonist
≤ 100 nM |  | Cc1cc(C)c(S(=O)(=O)NC(CSc2cccc3ccccc23)C(F)(F)F)c(C)c1 (stereo not shown) [2,4,6-Trimethyl-N-[2,2,2-trifluoro-1-(naphthalen-1-ylsulfanylmethyl)ethyl]benzenesulfonamide] | activity as an agonist
≤ 100 nM |  | CC[C@@H](CNc1cccc2ccccc12)NS(=O)(=O)c1c(N)cc(Cl)cc1Cl [2-Amino-4,6-dichloro-N-[(S)-1-(naphthalen-1-ylaminomethyl)propyl]benzenesulfonamide] | activity as an agonist
≤ 100 nM |  | CC[C@@H](CNc1ccc(C)cc1C)NS(=O)(=O)c1c(N)cc(Cl)cc1Cl [2-Amino-4,6-dichloro-N—{(S)-1-[(2,4-dimethylphenylamino)methyl]propyl}benzenesulfonamide] | activity as an agonist
≤ 100 nM |  | Cc1cc(C)c(S(=O)(=O)NC(CNc2ccc(Cl)c3ccccc23)C(F)(F)F)c(C)c1 (stereo not shown) [N-{1-[(4-Chloronaphthalen-1-ylamino)methyl]-2,2,2-trifluoroethyl}-2,4,6-trimethylbenzenesulfonamide] | activity as an agonist
≤ 100 nM |  | Cc1cc(C)c(S(=O)(=O)NC(CNc2cccc3ccccc23)C(F)(F)F)c(C)c1 (stereo not shown) [2,4,6-Trimethyl-N-[2,2,2-trifluoro-1-(naphthalen-1-ylaminomethyl)ethyl]benzenesulfonamide] | activity as an agonist
 | 151 °C | CC[C@@H](CNc1ccc(C)cc1C)NS(=O)(=O)c1c(N)cc(Cl)cc1Cl | 
